In the CheMixHub viscosity set:
± gives the uncertainty stated by the source.

Assay: xn = mol fraction of the nth substance listed

CCCCCCCCCCCCCCCC + CCCCCC
Conditions | viscosity [mPa·s]
298.09 K, 100 kPa, x1 = 0.8 | 2.236 ± 0.091
298.12 K, 100 kPa, x1 = 0.4 | 0.991 ± 0.04
298.15 K, 100 kPa, x1 = 0.6 | 1.518 ± 0.062
298.15 K, 101 kPa, x1 = 0.1995 | 0.6062 ± 0.051
298.15 K, 101 kPa, x1 = 0.3978 | 1.017 ± 0.11
298.15 K, 101 kPa, x1 = 0.5746 | 1.453 ± 0.18
298.15 K, 101 kPa, x1 = 0.8011 | 2.209 ± 0.34
298.15 K, 101.33 kPa, x2 = 0.1046 | 2.659 ± 0.032
298.15 K, 101.33 kPa, x2 = 0.1966 | 2.25 ± 0.027
298.15 K, 101.33 kPa, x2 = 0.3 | 1.88 ± 0.023
298.15 K, 101.33 kPa, x2 = 0.4037 | 1.547 ± 0.019
298.15 K, 101.33 kPa, x2 = 0.5142 | 1.214 ± 0.015
298.15 K, 101.33 kPa, x2 = 0.6072 | 0.987 ± 0.013
298.15 K, 101.33 kPa, x2 = 0.7062 | 0.7626 ± 0.01
298.15 K, 101.33 kPa, x2 = 0.8048 | 0.58 ± 0.0081
298.15 K, 101.33 kPa, x2 = 0.9026 | 0.4277 ± 0.0064
298.19 K, 101 kPa, x2 = 0.1987 | 2.235 ± 0.026
298.19 K, 101 kPa, x2 = 0.3772 | 1.607 ± 0.019
298.19 K, 101 kPa, x2 = 0.5983 | 1.001 ± 0.012
298.19 K, 101 kPa, x2 = 0.7982 | 0.5933 ± 0.0074
298.22 K, 100 kPa, x1 = 0.2 | 0.584 ± 0.024
318.26 K, 101 kPa, x2 = 0.1976 | 1.534 ± 0.018
318.26 K, 101 kPa, x2 = 0.3758 | 1.155 ± 0.014
318.26 K, 101 kPa, x2 = 0.5971 | 0.7591 ± 0.0093
318.26 K, 101 kPa, x2 = 0.7975 | 0.4712 ± 0.006
323.13 K, 100 kPa, x1 = 0.6 | 1.028 ± 0.042

ClC(Cl)Cl + C1COCCO1
Conditions | viscosity [mPa·s]
293.15 K, 101.33 kPa, x1 = 0.152 | 1.199 ± 0.031
293.15 K, 101.33 kPa, x1 = 0.2726 | 1.129 ± 0.029
293.15 K, 101.33 kPa, x1 = 0.3876 | 1.063 ± 0.028
293.15 K, 101.33 kPa, x1 = 0.4413 | 1.035 ± 0.027
293.15 K, 101.33 kPa, x1 = 0.516 | 0.992 ± 0.026
293.15 K, 101.33 kPa, x1 = 0.6385 | 0.919 ± 0.024
293.15 K, 101.33 kPa, x1 = 0.7409 | 0.819 ± 0.021
293.15 K, 101.33 kPa, x1 = 0.8856 | 0.677 ± 0.018
298.15 K, 101 kPa, x1 = 0.2 | 1.08 ± 0.012
298.15 K, 101 kPa, x1 = 0.4 | 0.981 ± 0.012
298.15 K, 101 kPa, x1 = 0.6 | 0.865 ± 0.011
298.15 K, 101 kPa, x1 = 0.8 | 0.703 ± 0.011
298.15 K, 101.33 kPa, x1 = 0.152 | 1.073 ± 0.028
298.15 K, 101.33 kPa, x1 = 0.2726 | 1.018 ± 0.026
298.15 K, 101.33 kPa, x1 = 0.3876 | 0.964 ± 0.025
298.15 K, 101.33 kPa, x1 = 0.4413 | 0.952 ± 0.025
298.15 K, 101.33 kPa, x1 = 0.516 | 0.905 ± 0.023
298.15 K, 101.33 kPa, x1 = 0.6385 | 0.837 ± 0.022
298.15 K, 101.33 kPa, x1 = 0.7409 | 0.774 ± 0.02
298.15 K, 101.33 kPa, x1 = 0.8856 | 0.658 ± 0.017
303.15 K, 101 kPa, x2 = 0.0995 | 0.59 ± 0.006
303.15 K, 101 kPa, x2 = 0.1981 | 0.672 ± 0.007
303.15 K, 101 kPa, x2 = 0.2998 | 0.75 ± 0.007
303.15 K, 101 kPa, x2 = 0.3953 | 0.801 ± 0.008
303.15 K, 101 kPa, x2 = 0.4992 | 0.857 ± 0.008
303.15 K, 101 kPa, x2 = 0.5971 | 0.91 ± 0.009
303.15 K, 101 kPa, x2 = 0.6993 | 0.956 ± 0.009
303.15 K, 101 kPa, x2 = 0.8015 | 0.997 ± 0.01
303.15 K, 101 kPa, x2 = 0.9021 | 1.044 ± 0.01
303.15 K, 101.33 kPa, x1 = 0.2137 | 1.007 ± 0.026
303.15 K, 101.33 kPa, x1 = 0.3447 | 0.949 ± 0.024
303.15 K, 101.33 kPa, x1 = 0.4212 | 0.934 ± 0.024
303.15 K, 101.33 kPa, x1 = 0.4813 | 0.886 ± 0.023
303.15 K, 101.33 kPa, x1 = 0.5194 | 0.879 ± 0.023
303.15 K, 101.33 kPa, x1 = 0.5698 | 0.844 ± 0.022
303.15 K, 101.33 kPa, x1 = 0.7088 | 0.752 ± 0.019

O=C(O)CCl + O
293.35 K, 101 kPa
Conditions | viscosity [mPa·s]
x1 = 0.01308 | 11070 ± 3800
x1 = 0.02204 | 12080 ± 4400
x1 = 0.02477 | 11950 ± 4300
x1 = 0.0251 | 11580 ± 4100
x1 = 0.03355 | 12540 ± 4600
x1 = 0.05294 | 15100 ± 6000

O=CC(Cl)(Cl)Cl + CO
313.15 K, 101 kPa
Conditions | viscosity [mPa·s]
x1 = 0.0365 | 0.5111 ± 0.014
x1 = 0.1162 | 0.9078 ± 0.024
x1 = 0.2408 | 2.096 ± 0.055
x1 = 0.3032 | 2.491 ± 0.067
x1 = 0.4207 | 6.085 ± 0.16
x1 = 0.444 | 6.591 ± 0.17
x1 = 0.4731 | 7.389 ± 0.19
x1 = 0.5032 | 7.028 ± 0.19
x1 = 0.5958 | 3.182 ± 0.087
x1 = 0.7159 | 1.792 ± 0.048
x1 = 0.8416 | 1.198 ± 0.032
x1 = 0.9603 | 0.8738 ± 0.023

ClC(Cl)Cl + CN(C)C=O
viscosity [mPa·s], 101 kPa
Conditions | 293.15 K | 303.15 K | 313.15 K | 323.15 K
x2 = 0.0512 | 0.7325 ± 0.15 | 0.6616 ± 0.13 | 0.6031 ± 0.12 | –
x2 = 0.1011 | 0.7913 ± 0.16 | 0.7089 ± 0.14 | 0.636 ± 0.13 | 0.5823 ± 0.12
x2 = 0.1954 | 0.9132 ± 0.18 | 0.8102 ± 0.16 | – | 0.6447 ± 0.13
x2 = 0.1955 | – | – | 0.7206 ± 0.14 | –
x2 = 0.2975 | 1.025 ± 0.2 | 0.901 ± 0.18 | 0.7977 ± 0.16 | 0.7077 ± 0.14
x2 = 0.392 | 1.095 ± 0.22 | 0.9598 ± 0.19 | 0.8479 ± 0.17 | 0.7408 ± 0.15
x2 = 0.5008 | 1.128 ± 0.23 | 0.9894 ± 0.2 | 0.8735 ± 0.17 | 0.7803 ± 0.16
x2 = 0.5983 | 1.123 ± 0.23 | 0.9851 ± 0.2 | 0.8753 ± 0.18 | 0.7856 ± 0.16
x2 = 0.6918 | 1.091 ± 0.22 | 0.9617 ± 0.19 | 0.8556 ± 0.17 | 0.7692 ± 0.15
x2 = 0.7851 | 1.051 ± 0.21 | 0.9294 ± 0.19 | 0.8306 ± 0.17 | 0.7493 ± 0.15
x2 = 0.8951 | 0.9944 ± 0.2 | – | 0.7921 ± 0.16 | 0.7179 ± 0.14
x2 = 0.8952 | – | 0.8835 ± 0.18 | – | –

CC(=O)OCc1ccccc1 + Cc1cccc(C)c1
viscosity [mPa·s], 101 kPa
Conditions | x1 = 0.0925 | x1 = 0.1766 | x1 = 0.2746 | x1 = 0.3691 | x1 = 0.4674 | x1 = 0.5665 | x1 = 0.6703 | x1 = 0.7681 | x1 = 0.8773 | x1 = 0.9356
303.15 K | 0.593 ± 0.008 | 0.638 ± 0.008 | 0.712 ± 0.009 | 0.79 ± 0.01 | 0.884 ± 0.011 | 0.996 ± 0.012 | 1.125 ± 0.014 | 1.257 ± 0.016 | 1.436 ± 0.018 | 1.535 ± 0.019
313.15 K | 0.528 ± 0.007 | 0.576 ± 0.007 | 0.634 ± 0.008 | 0.679 ± 0.009 | 0.751 ± 0.01 | 0.837 ± 0.011 | 0.942 ± 0.012 | 1.05 ± 0.013 | 1.177 ± 0.015 | 1.245 ± 0.016

CCCCCCCCCCCCCCCC + CC(C)CC(C)(C)C
298.15 K
Conditions | viscosity [mPa·s]
101 kPa, x2 = 0.05562 | 2.82 ± 0.028
101 kPa, x2 = 0.1311 | 2.55 ± 0.025
101 kPa, x2 = 0.1971 | 2.371 ± 0.024
101 kPa, x2 = 0.307 | 1.95 ± 0.019
101 kPa, x2 = 0.4264 | 1.651 ± 0.017
101 kPa, x2 = 0.5472 | 1.337 ± 0.013
101 kPa, x2 = 0.6552 | 1.077 ± 0.011
101 kPa, x2 = 0.7341 | 0.9214 ± 0.0092
101 kPa, x2 = 0.8043 | 0.7819 ± 0.0079
101 kPa, x2 = 0.8275 | 0.7495 ± 0.0075
101 kPa, x2 = 0.8768 | 0.6682 ± 0.0067
101 kPa, x2 = 0.929 | 0.5871 ± 0.0059
101 kPa, x2 = 0.9511 | 0.5441 ± 0.0055
101.33 kPa, x1 = 0.101 | 0.6392 ± 0.0056
101.33 kPa, x1 = 0.199 | 0.8143 ± 0.0069
101.33 kPa, x1 = 0.2987 | 1.014 ± 0.0085
101.33 kPa, x1 = 0.4006 | 1.24 ± 0.01
101.33 kPa, x1 = 0.4999 | 1.489 ± 0.012
101.33 kPa, x1 = 0.6004 | 1.765 ± 0.015
101.33 kPa, x1 = 0.7002 | 2.062 ± 0.017
101.33 kPa, x1 = 0.8003 | 2.391 ± 0.021
101.33 kPa, x1 = 0.9001 | 2.72 ± 0.024
